These are literature values, as cited in publication PMC3961596 (Advances in Therapy, 2014).

The test system of this series is urinary glucose excretion. Particulars: healthy subjects; cited from earlier work.

For the molecule `Cc1ccc([C@@H]2O[C@H](CO)[C@@H](O)[C@H](O)[C@H]2O)cc1Cc1ccc(-c2ccc(F)cc2)s1` [canagliflozin], the “maximum amount of daily UGE after multiple dose” value was 50 to 55 g/day and the “maximum amount of daily UGE after single dose” value is recorded as “approximately 70 g/day”.

Regarding `CCOc1ccc(Cc2cc([C@@H]3O[C@H](CO)[C@@H](O)[C@H](O)[C@H]3O)ccc2Cl)cc1` [dapagliflozin], the “maximum amount of daily UGE after multiple dose” value was 50 to 55 g/day and the “maximum amount of daily UGE after single dose” value is recorded as “approximately 70 g/day”.

`OC[C@H]1O[C@@H](c2ccc(Cl)c(Cc3ccc(O[C@H]4CCOC4)cc3)c2)[C@H](O)[C@@H](O)[C@@H]1O` [empagliflozin]: the “maximum amount of daily UGE after multiple dose” value was 50 to 55 g/day and the “maximum amount of daily UGE after single dose” value is “approximately 70 g/day”.

Take `OC[C@H]1O[C@@H](c2ccc(F)c(Cc3cc4ccccc4s3)c2)[C@H](O)[C@@H](O)[C@@H]1O` [ipragliflozin]: the “maximum amount of daily UGE after multiple dose” value is 50 to 55 g/day and the “maximum amount of daily UGE after single dose” value is recorded as “approximately 70 g/day”.
